Measured values reported in PubChem BioAssay AID743402 (Broad Institute, 2014).

Each compound was assayed on FRT CFTR-F508del YFP iodide quenching, 24 h (assay: CFTR-F508del correctors, dose response, FRT cells, YFP quenching, cherry-pick (AID 743402;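 also: compounds act as correctors raising surface CFTR-F508del before acute activation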)). Details: not given.
With `O=[N+]([O-])c1ccc(N2CCOCC2)c2c1no[n+]2[O-]` the AC35 was 10.4 µM. `CC[n+]1c(-c2ccccc2)c2cc(N)ccc2c2ccc(N)cc21` was tested, and the AC35 was 13.3 µM. `COC1C(C)OC(OC2CC(C)(O)Cc3cc4c(c(O)c32)C(=O)c2c(O)cc3c(c2C4=O)OC2OC3(C)C(O)C(N(C)C)C2O)C(OC)C1(C)OC` (stereo not given) gave an AC35 of 2.39 µM. `CC1(C)OC(c2ccccc2)=C/C(=C/C=C2C(=O)NC(=O)NC2=O)O1` showed an AC35 of 13.4 µM. Compound `C[C@H]1CCC/C=C/[C@@H]2C[C@H](O)C[C@H]2[C@H](O)/C=C/C(=O)O1` has an AC35 of 15.2 µM. With `CCC1(C)OC(c2ccccc2)=C/C(=C/C=C2C(=O)NC(=O)NC2=O)O1` (stereo not given) the AC35 was 11.7 µM. `CC1=NCCc2c1[nH]c1cc(O)ccc21` gave an AC35 of 13.4 µM. Compound `CC1(C)OC(c2ccccc2)=C/C(=C/C=C2C(=O)NC(=S)NC2=O)O1` has an AC35 of 3.34 µM. `C[n+]1c2cc(N)ccc2cc2ccc(N)cc21` was tested, and the AC35 was 0.19 µM.

Same assay, conditions: channel opened with forskolin and a potentiator
In the case of `COc1ccc(C(=O)NCCN(C)C)c2nc3ccccc3cc12`, the AC35 is reported as 25.7 µM. `CC(=NNC(=O)c1ccncc1)c1ccc2ccccc2c1O` showed an AC35 of 4.3 µM. With `COc1cc(/C=C2\SC(=Nc3ccc(Cl)c(C(=O)O)c3)NC2=O)c(Br)c(Br)c1O` the AC35 was 2.19 µM. `N#C/C(=C/c1ccc(N2CCCCC2)o1)C(=O)Nc1ccc2ccccc2c1` was tested, and the AC35 was 2.37 µM. Work on `COc1ccc(S(=O)(=O)Nc2ccc3c(c2)C(=O)N([C@@H](C)CO)C[C@@H](C)[C@H](CN(C)Cc2ccc(Oc4ccccc4)cc2)O3)cc1` yielded an AC35 of 1.52 µM. `CN1/C(=C\C=C2/SC(=S)N(CC(=O)O)C2=O)C(C)(C)c2ccccc21` showed an AC35 of 1.37 µM. `O=c1ccc2c(-c3ccccc3)c3ccc(O)cc3oc-2c1` was tested, and the AC35 was 1.11 µM. Compound `COc1cc(OC)c(-c2c3cc(O)c(=O)cc-3oc3cc(O)c(O)cc23)cc1OC` has an AC35 of 4.15 µM. With `COC(=O)c1ccccc1-c1c2ccc(=N)cc-2oc2cc(N)ccc12` the AC35 was 0.0334 µM. With `COc1cc(OC)cc(C(=O)N[C@H](C(=O)Nc2nc3ccccc3[nH]2)C(C)C)c1` the AC35 was 9.27 µM. With `CC(=O)Nc1sc2c(c1-c1nc3ccccc3s1)CN(C(C)C)CC2` the AC35 was 10.7 µM. `CN(C)CCNC(=O)c1ccc(Cl)c2cc3ccccc3nc12` gave an AC35 of 9.45 µM. `O=C(Nc1cccc(F)c1)N1CCCCN2[C@@H](CO)[C@H](c3ccc(C#Cc4ccccc4)cc3)[C@@H]2C1` showed an AC35 of 19.7 µM. `N#CC(C#N)=C1C=C2C=C(N3CCCCCC3)CCC2CC1` (stereo not given) showed an AC35 of 0.0871 µM. In the case of `COc1c(C=O)c2c(c(OC)c1OC)-c1ccc(OC)c(=O)cc1C(NC(C)=O)CC2` (stereo not given), the AC35 is reported as 20.9 µM. `COc1cccc2c1C(=O)c1c(O)c3c(c(O)c1C2=O)CC(O)(C(=O)CO)CC3OC1CC(N(C)C)C(O)C(C)O1` (stereo not given) gave an AC35 of 1.37 µM. `Clc1ccc(Nc2ccc3ccccc3n2)cc1` was tested, and the AC35 was 4.5 µM. With `COC(=O)c1cc2c(=O)c3ccccc3oc2nc1/C=C/N(C)C` the AC35 was 0.544 µM. For `N#CC(C#N)=C1C=C2C=C(N3CCOCC3)CCC2CC1` (stereo not given), the AC35 was 0.14 µM. In the case of `Nc1c2ccccc2nc2ccccc12`, the AC35 is reported as 12.9 µM. `Cc1ccnc(N2C(=O)c3cccc4c([N+](=O)[O-])ccc(c34)C2=O)c1` showed an AC35 of 7.01 µM. `O=C1c2cccc3c([N+](=O)[O-])ccc(c23)C(=O)N1Cc1cccnc1` was tested, and the AC35 was 9.18 µM. `O=[N+]([O-])c1ccc(Sc2cccc[n+]2[O-])c2nonc12` gave an AC35 of 4.93 µM. Compound `Cn1c(=O)c(NC2CCCCC2)c2c3c(cccc31)C(=O)c1ccccc1-2` has an AC35 of 1.05 µM. Compound `O=C(Nc1cccc(F)c1)N1CCCCN2[C@@H](CO)[C@H](c3ccc(C#CC4CC4)cc3)[C@@H]2C1` has an AC35 of 20.8 µM. `Cc1cc2[nH]c3c(c[n+](C)c4ccccc34)c2cc1C` was tested, and the AC35 was 13.4 µM. In the case of `COc1ccc2noc3c2c1C(=O)c1ccccc1-3`, the AC35 is reported as 5.51 µM. `COc1ccc(OC)c(Nc2nc(-c3sc(NC(=O)C(C)(C)C)nc3C)cs2)c1` gave an AC35 of 0.908 µM. `CCCC#Cc1ccc([C@H]2[C@H](CO)N3C(=O)CN(C(=O)Nc4cc(F)ccc4F)C[C@@H]23)cc1` showed an AC35 of 23.3 µM. `CN1c2ccc(-c3ccc(F)cc3)cc2[C@H]2[C@H](CCN2S(=O)(=O)c2cccc(F)c2)[C@H]1CO` showed an AC35 of 15.5 µM. `COC(=O)Cn1c(=NC(=O)c2cc(-c3cccs3)nc3ccccc23)sc2cc(S(N)(=O)=O)ccc21` was tested, and the AC35 was 9.92 µM. For `CCOC(=O)C1CCCN(c2ccc([N+](=O)[O-])c3nonc23)C1` (stereo not given), the AC35 was 5.34 µM. In the case of `COc1ccccc1Nc1nc(-c2sc(NC(=O)C(C)(C)C)nc2C)cs1`, the AC35 is reported as 3.51 µM. Compound `CCC(=O)N1CC2(CCN(Cc3ccc(Cl)cc3)CC2)c2c([nH]c3cc(OC)ccc23)[C@H]1CO` has an AC35 of 22.2 µM. `N#Cc1ccc(-c2ccc3c(c2)[C@H]2[C@H](CCN2S(=O)(=O)c2ccccc2F)[C@@H](CO)N3)cc1` was tested, and the AC35 was 21.3 µM. With `COc1ccc(-c2cnc3c(NC=O)cc(-c4ccccc4)cn23)cc1OC` the AC35 was 10.4 µM. For `O=S(=O)(c1ccc(F)cc1)N1CC[C@@H]2[C@@H](CO)Nc3ccc(-c4ccc(F)cc4)cc3[C@@H]21`, the AC35 was 17.7 µM. For `CC(C)Nc1nc(Nc2ccc(Cl)cc2F)c2sccc2n1`, the AC35 was 12.7 µM. `CN(C)CCNc1ccc2ncn3c4ccc(O)cc4c(=O)c1c23` gave an AC35 of 8.57 µM. `NS(=O)(=O)c1ccc(NC(=O)c2cccc3cc4ccccc4nc23)cc1` gave an AC35 of 20.9 µM. `CCN(CC)CCn1c2ccccc2c2nc3ccccc3nc21` gave an AC35 of 17.3 µM. `C=CCN1C(=O)/C(=C/C=C2/N(CC)c3ccc(S(=O)(=O)N(C)C)cc3N2CC)SC1=S` was tested, and the AC35 was 1.3 µM. Work on `O=[N+]([O-])c1ccc(/C=C/C2=NN(c3ccccc3)C(c3ccco3)C2)o1` (stereo not given) yielded an AC35 of 2.93 µM. `C[C@@H]1CN([C@@H](C)CO)C(=O)Cc2cc(NC(=O)Nc3cccc4ccccc34)ccc2O[C@@H]1CN(C)Cc1ccc(Cl)c(Cl)c1` gave an AC35 of 22.4 µM. Compound `O=c1ccc2[n+]([O-])c3ccc(O)cc3oc-2c1` has an AC35 of 10.9 µM. With `O=C(Cc1ccccc1)N1CC(=O)N2[C@H](C1)[C@@H](c1ccc(C#Cc3ccccc3)cc1)[C@@H]2CO` the AC35 was 21.3 µM. `O=C1c2cccc(NCCCNCCO)c2C(=O)c2cccc(NCCCNCCO)c21` showed an AC35 of 5.19 µM. For `CO[C@@]12[C@@H]3N[C@@H]3CN1C1=C(C(=O)C(N)=C(C)C1=O)[C@@H]2COC(N)=O`, the AC35 was 19.4 µM. Work on `C[C@@H]1CCCCO[C@H](CN(C)Cc2ccc(Cl)c(Cl)c2)[C@@H](C)CN([C@@H](C)CO)C(=O)c2cc(NS(=O)(=O)c3ccc(Cl)cc3)ccc2O1` yielded an AC35 of 23.5 µM. `CCN(CC)C1=CC2=CC(=C(C#N)C#N)CCC2CC1` (stereo not given) gave an AC35 of 0.0855 µM. Compound `CCN1C(=O)c2cccc3c(N)ccc(c23)C1=O` has an AC35 of 2.83 µM. Compound `C[C@H]1CN([C@@H](C)CO)S(=O)(=O)c2ccc(/C=C/c3ccccc3)cc2O[C@H]1CN(C)Cc1ccccc1` has an AC35 of 21.9 µM. With `N#C/C(=C\c1ccccn1)c1nc2ccccc2s1` the AC35 was 3.38 µM. `CCCC#Cc1ccc([C@H]2[C@@H](CO)N3CCCCN(S(=O)(=O)c4ccccc4C)C[C@H]23)cc1` was tested, and the AC35 was 19 µM. `COc1cccc(Nc2nc(-c3sc(NC(=O)c4ccccc4)nc3C)cs2)c1` gave an AC35 of 4.43 µM. With `C=CCCC(=O)Nc1nc(C)c(-c2csc(Nc3cc(OC)ccc3OC)n2)s1` the AC35 was 4.51 µM. `OC[C@@H]1[C@@H](c2ccccc2)C2(CN(Cc3ccccc3F)C2)N1Cc1ccccc1F` was tested, and the AC35 was 23.1 µM. Work on `COc1ccc([C@H]2CC(=O)C=C(c3ccc(OC)cc3OC)C2)cc1` yielded an AC35 of 25 µM. `CCOc1ccc(C)cc1S(=O)(=O)n1cnc2ccccc21` gave an AC35 of 15.9 µM. `COc1cccc2c1C(=O)c1c(O)c3c(c(O)c1C2=O)C[C@@](O)(C(C)=O)C[C@@H]3O[C@H]1C[C@H](N)[C@H](O)[C@H](C)O1` showed an AC35 of 0.856 µM. `Nc1ccc2c3c(cccc13)C(=O)N(c1ccccc1)C2=O` gave an AC35 of 1.93 µM. `CCN(CC)c1ccc(/C=C(/C#N)c2nc3ccc(C)cc3[nH]2)c(OC(C)C)c1` showed an AC35 of 0.796 µM. `O=C(C1CC1)N1CC(=O)N2[C@H](CO)[C@@H](c3ccc(-c4ccccc4F)cc3)[C@@H]2C1` gave an AC35 of 19.7 µM. `COC(C(=O)C(O)C(C)O)C1Cc2cc3cc(OC4CC(OC5CC(O)C(O)C(C)O5)C(O)C(C)O4)c(C)c(O)c3c(O)c2C(=O)C1OC1CC(OC2CC(OC3CC(O)C(OC)C(C)O3)C(O)C(C)O2)C(O)C(C)O1` (stereo not given) gave an AC35 of 0.583 µM. `COc1cccc(S(=O)(=O)N2C[C@@H]3N[C@H](C2)C3c2ccc(-c3cccc(C)c3)cc2)c1` (stereo not given in full) gave an AC35 of 21 µM. `COc1cccc2c1C(=O)c1c(O)c3c(c(O)c1C2=O)C[C@](O)(C(C)=O)C[C@H]3O[C@@H]1C[C@@H](N)[C@@H](O)[C@@H](C)O1` gave an AC35 of 1.65 µM. `CC(C)(C)c1ccc(OCC(=O)Nc2ccc3c4c(cccc24)C(=O)NC3=O)cc1` was tested, and the AC35 was 6.68 µM. `O=c1c2ccccc2sc2c(CO)ccc(NCCN3CCCCC3)c12` was tested, and the AC35 was 21.8 µM. Work on `COc1cccc(-c2ccc(C3[C@@H]4CN(S(=O)(=O)c5cccc(OC)c5)C[C@H]3N4)cc2)c1` (stereo not given in full) yielded an AC35 of 16 µM. Work on `CCC1=C(CC2NCCc3ccccc32)CC2c3cc(OC)c(OC)cc3CCN2C1` (stereo not given) yielded an AC35 of 15.4 µM. Compound `COc1cccc(S(=O)(=O)N2C[C@@H]3N[C@H](C2)C3c2ccc(-c3ccccc3F)cc2)c1` (stereo not given in full) has an AC35 of 24.5 µM. Compound `c1ccc2c(NCCCN3CCOCC3)c3ccccc3nc2c1` has an AC35 of 16.6 µM. Compound `CNc1ccc2c3c(cccc13)C(=O)N(C)C2=O` has an AC35 of 0.651 µM. With `C#C[C@]1(O)CC[C@H]2[C@@H]3CCc4cc(OC5CCCC5)ccc4[C@H]3CC[C@@]21C` the AC35 was 25.1 µM. `CN(C)CCCNc1c2ccccc2nc2ccccc12` gave an AC35 of 3.57 µM. Compound `Cc1cc(C)c(/C=C2\C(=O)Nc3ccccc32)[nH]1` has an AC35 of 3.24 µM. Compound `CN(C)/C=C1\C=C2C(=O)c3ccccc3N2C1=O` has an AC35 of 2.19 µM. For `O=C1c2cccc3c(O)ccc(c23)C(=O)N1Cc1ccco1`, the AC35 was 2.65 µM. `O=C1c2cccc3c(N4CCCCC4)ccc(c23)C(=O)N1c1cccc(O)c1` showed an AC35 of 4.44 µM. Compound `CCN(CC)CCCNc1ccc2ncn3c4ccc(O)cc4c(=O)c1c23` has an AC35 of 4.01 µM. `CN1C(=CC=C2C=C(I)C(=O)C(I)=C2)C(C)(C)c2ccccc21` gave an AC35 of 5.68 µM. Compound `C[n+]1c2cc(N)ccc2cc2ccc(N)cc21` has an AC35 of 0.51 µM. `CC1=C/C(=C\C=C(C#N)C#N)N(C)c2ccccc21` showed an AC35 of 5.2 µM. `C[C@H]1CN([C@@H](C)CO)S(=O)(=O)c2ccc(C#Cc3ccc(F)cc3)cc2O[C@H]1CN(C)C(=O)NC1CCCCC1` showed an AC35 of 22.6 µM. For `c1ccc2c(c1)C1=NCCN1c1ccccc1-2`, the AC35 was 8.91 µM. For `COc1ccc(OC)c(-c2nnc3n2N=C(c2ccc(OC)c(OC)c2)CS3)c1`, the AC35 was 5.34 µM. Compound `C[C@@H]1CN([C@@H](C)CO)C(=O)Cc2cc(N(C)C)ccc2O[C@@H]1CN(C)Cc1ccc(C(=O)Nc2ccccc2N)cc1` has an AC35 of 19.7 µM. Work on `COc1ccccc1N1CCN(C(=O)c2ccc(-c3ccc(Cl)cc3)o2)CC1` yielded an AC35 of 7.37 µM. With `CCCC(=O)NC1=C(Cl)C(=O)c2ccccc2C1=O` the AC35 was 7.72 µM. With `O=C(O)c1ccccc1-c1c2cc(I)c(=O)c(I)c-2oc2c(I)c(O)c(I)cc12` the AC35 was 1.74 µM. With `Nc1ccc(-c2c3ccc(=O)cc-3oc3cc(O)ccc23)cc1C(=O)O` the AC35 was 1.61 µM.
